In experiment [1] the target is T1, restriction enzyme BamH1 (Bacillus amyloliquefaciens, UniProt P23940).
T1 sequence (P23940 1-213): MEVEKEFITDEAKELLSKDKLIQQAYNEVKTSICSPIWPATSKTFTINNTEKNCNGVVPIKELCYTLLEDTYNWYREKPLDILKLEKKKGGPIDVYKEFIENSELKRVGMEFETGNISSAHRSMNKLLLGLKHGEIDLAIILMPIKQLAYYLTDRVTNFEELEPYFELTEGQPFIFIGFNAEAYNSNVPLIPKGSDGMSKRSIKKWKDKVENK
It is filed as biochemical. The settings on record: exposure to 17,500 Gy; 25 mM potassium phosphate buffer; 3 mM adenosine, 1 mM MnCl2. On the procedure: Post-irradiation functionality of restriction enzyme BamH1 after indicated treatment and incubation with 1-DNA.

Experiment [2] has as its system Purified E. coli proteins. The experiment is described as follows: protein carbonyl assay of purified E. coli proteins irradiated in vitro. It is filed as biochemical. The settings on record: for prevention of ionizing radiation (IR)-induced protein oxidation (carbonylation) in vitro: purified E. coli proteins incubated with the agent during irradiation, Carbonyl Western blot. On the procedure: Purified E. coli proteins were incubated in PP-, EC-, or DR-ultra-filtrated extract during irradiation, and subjected to a protein carbonyl assay.
Purified E. coli proteins were incubated with the indicated agents.

The subject of experiment [3] is hFOB cells. The experiment can be described thus: apoptosis assay (Annexin V / PI flow cytometry) of hFOB cells 6 days after IR. It is filed as cell-based, Human. The following applies: for radioprotection of a mammalian cell line: agent alone; for Annexin V + / Annexin-V + PI / Live Cells / PI: hFOB cells 6 days after IR, adenosine 10 mM, MnCl2 0.25 mM, added 3 h before IR. On the procedure:
Apoptosis of Human Fetal Osteoblastic 1.19 cell line from ATCC (hFOB) was determined by death and apoptotic markers (Annexin V and propidium iodide PI) using a flow cytometry assay. In brief, hFOB cells were cultured in DMEM-F12 with 10% fetal bovine serum, 2.5 mM L-glutamine and 1% antibiotic to full confluency followed by treatment for experimental groups with adenosine (10 mM) or MnCl2 (0.25 mM) or adenosine and MnCl2 for 6 days period starting 3 h before IR. Apoptotic cell death was measured by flow cytometry with Annexin V and PI staining 6 days after IR. hFOB cells also were plated (1×10^3/well, 6-well plate) for clonogenic survival assay after IR. Colonies were counted 10 days later.
For the assays, adenosine+/−0.25 mM Mn(II) was added 3 hours prior to irradiation. Cells were assayed 6 days after irradiation by flow cytometry. Annexin-V conjugates allow for the identification of cell surface changes that occur early during the apoptotic process using flow cytometry. Early in the apoptotic process, phosphatidylserine becomes exposed on the cell surface. Propidium Iodide (PI) in un-fixed cells discriminates between apoptosis and necrosis on the basis of dye exclusion. While necrotic cells lose membrane integrity early on in their death throws, apoptotic cells may have compromised membranes.

For `Nc1ncnc2c1ncn2[C@@H]1O[C@H](CO)[C@@H](O)[C@H]1O` [Adenosine, adenosine], in experiment [1], the “BamH1 functionality after irradiation” value is “not”. In addition, the “protection of proteins from oxidation during irradiation” value in experiment [2] (potassium phosphate buffer (PPB/25 mM)+15 mM adenosine, compared to buffer alone) is listed as “highly protected from oxidation”. The “prevention of ionizing radiation (IR)-induced protein oxidation (carbonylation) in vitro” value in experiment [2] is listed as “prevent ionizing radiation (IR)-induced protein oxidation in vitro”. Also, the “radioprotection of a mammalian cell line” value in experiment [3] is reported as “radioprotective”. In experiment [3] (0 Gy), the “Annexin V +” value came out at 2%, the “Annexin-V + PI” value is 1%, the “Live Cells” value is recorded as 85% and the PI is 13%. In experiment [3] (8 Gy), the “Annexin V +” value is on record as 3%, the “Annexin-V + PI” value amounted to 2%, the “Live Cells” value was 85% and the PI was found to be 10%.
Consider `[Cl][Mn][Cl]` [Mn, MnCl2], for which the “BamH1 functionality after irradiation” value in experiment [1] is “not”. In experiment [3], the “radioprotection of a mammalian cell line” value is on record as “radioprotective”. Moreover, in experiment [3] (0 Gy), the “Annexin V +” value is reported as 0%, the “Annexin-V + PI” value amounted to 0%, the “Live Cells” value is given as 86% and the PI is 14%. In experiment [3] (8 Gy), the “Annexin V +” value amounted to 21%, the “Annexin-V + PI” value was determined as 2%, the “Live Cells” value worked out at 70% and the PI turned out to be 7%.
For `O=c1ccn([C@@H]2O[C@H](CO)[C@@H](O)[C@H]2O)c(=O)[nH]1` [uridine], the “prevention of ionizing radiation (IR)-induced protein oxidation (carbonylation) in vitro” value in experiment [2] was “prevent ionizing radiation (IR)-induced protein oxidation in vitro”.

(Values after patent publication US9186406B2, “Compositions containing nucleosides and manganese and their uses” (The Henry M. Jackson Foundation for Advancement of Military …, priority 2007, dated 2015).)
